Measured values reported in patent US20210330578A1, “TOPICAL COSMETIC COMPOSITIONS” (Mary Kay Inc., priority 2020, published 2021).

Tested on: filaggrin
Assay: Filaggrin protein expression in keratinocytes (PROTEINSIMPLE SIMON western blotting bioassay)
Format: cell-based, human
Details: 1% tested, 24 to 36 hours
Experimental: Changes in the production of filaggrin in keratinocytes due to each of the active ingredients, any one of the combination of ingredients, or compositions having said combinations disclosed in the specification can be measured. Filaggrin is the precursor to Natural Moisturizing Factor (NMF) in the skin. Increased NMF increases the moisture content of the skin.
Filaggrin production in treated and non-treated keratinocytes was determined using the PROTEINSIMPLE® SIMON™ western blotting bioassay that employs an antibody specific for filaggrin to quantitatively detect filaggrin concentration in keratinocyte cell lysates. The treated group of keratinocytes was treated with 1% of calcium or an extract of Laminaria saccharina, marine plankton, Opuntia ficus-indica, Imperata cylindrical, or Verbena officinalis (1%).
For each sample, normal human epidermal keratinocytes (NHEK) were grown in EPI-200—Mattek EPILIFE™ growth media with calcium from Life Technologies (M-EP-500-CA). […] The protein concentrations of the samples were determined and used to normalize the samples. The lysates were stored at −80° C. until used in the quantification assay. […] The chemiluminescent development was stopped at a specific time and the intensity of the chemiluminescent signal was measured (reported as Area Under Curve, AUC in Table 3 below) and compared to controls.

Structure (SMILES): [Ca+2] [Calcium]
- % Ctrl (increase in filaggrin protein expression) (NHEK, compared to controls): 15.60%
- AUC (intensity of the chemiluminescent signal, filaggrin) (normal human epidermal keratinocytes (NHEK), control AUC 70848): 81899
